Assays:
Test in all cases: relative viability (nuclei count vs DMSO), 5 days (fraction); higher = more cells survive
Indole-3-carbinol = compound: OCc1c[nH]c2ccccc12 [Indole-3-carbinol]
How it was run: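 Hoechst staining, done together with fixation and permeabilisation, marked nuclei for 4× imaging and MetaXpress counting. This followed 5 days without medium change after lung cancer cell lines, kept overnight at 37 °C in 1536-well plates, were pinned with five library-drug doses (not always all listed) spaced by √10 on vehicle-anchored plates. Viability is the ratio of treated-well to vehicle-well nuclei, expressed as a median across plates. Plates passed only at control CV below 25% with at least one doubling.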

[1] = compound: OCc1c[nH]c2ccccc12 [Indole-3-carbinol] + COc1cc2c(Oc3ccc(NC(=O)C4(C(=O)Nc5ccc(F)cc5)CC4)cc3F)ccnc2cc1OCCCN1CCOCC1 [Foretinib] (partner 0.25 µM)
How it was run: (§1)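 For relative viability, nuclei counts in treated wells were divided by those in vehicle wells. Lung cancer cell lines had been pin-tool dosed in 1536-well plates the day after seeding and cultured for 5 days, then fixed and stained in one step (final 0.05% Triton X-100, 1% formaldehyde, 1 ug/ml Hoechst) and imaged at 4×. Doses were one drug alone or a fixed anchor-drug dose plus five library-drug doses (not always all listed) in √10 steps, and values are duplicate-plate medians.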

[2] = compound: OCc1c[nH]c2ccccc12 [Indole-3-carbinol] + C[C@@H](Oc1cc(-c2cnn(C3CCNCC3)c2)cnc1N)c1c(Cl)ccc(F)c1Cl [Crizotinib] (partner 1 µM)
How it was run: as §1

[3] = compound: OCc1c[nH]c2ccccc12 [Indole-3-carbinol] + C[C@]1(O)C[C@@H](c2nc(-c3ccc4ccc(-c5ccccc5)nc4c3)c3c(N)nccn32)C1 [Linsitinib] (partner 1 µM)
How it was run: as §1

[4] = compound: OCc1c[nH]c2ccccc12 [Indole-3-carbinol] + N=C(N)NC(=N)NCCc1ccccc1 [Phenformin] (partner 250 µM)
How it was run: as §1

| Cell Line | relative viability (Indole-3-carbinol; 0.253 µM) | relative viability (Indole-3-carbinol; 0.8 µM) | relative viability (Indole-3-carbinol; 2.53 µM) | relative viability (Indole-3-carbinol; 8 µM) | relative viability ([1]; first compound 0.253 µM) | relative viability ([1]; first compound 0.8 µM) | relative viability ([1]; first compound 2.53 µM) | relative viability ([1]; first compound 8 µM) | relative viability ([2]; first compound 0.253 µM) | relative viability ([2]; first compound 0.8 µM) | relative viability ([2]; first compound 2.53 µM) | relative viability ([2]; first compound 8 µM) | relative viability ([3]; first compound 0.253 µM) | relative viability ([3]; first compound 0.8 µM) | relative viability ([3]; first compound 2.53 µM) | relative viability ([3]; first compound 8 µM) | relative viability ([4]; first compound 0.253 µM) | relative viability ([4]; first compound 0.8 µM) | relative viability ([4]; first compound 2.53 µM) | relative viability ([4]; first compound 8 µM) |
| --- | --- | --- | --- | --- | --- | --- | --- | --- | --- | --- | --- | --- | --- | --- | --- | --- | --- | --- | --- | --- |
| UMC-11 | 0.977 | 1.03 | 0.966 | 0.983 | 0.914 | 1.1 | 1.05 | 1.09 | 0.589 | 0.708 | 0.696 | 0.577 | 0.937 | 0.983 | 0.963 | 0.967 | 0.33 | 0.319 | 0.339 | 0.324 |
| NCI-H1975 | 1.04 | 0.93 | 1 | 0.897 | 0.888 | 0.977 | 1.01 | 0.873 | 1 | 1.13 | 0.966 | 0.97 | 0.812 | 1.05 | 0.964 | 0.954 | 0.391 | 0.413 | 0.419 | 0.417 |
| NCI-H1563 | 1.02 | 0.883 | 1.09 | 0.908 | 0.865 | 0.799 | 0.914 | 0.859 | 0.769 | 0.883 | 0.866 | 0.879 | 1.24 | 1.27 | 1.23 | 1.08 | 0.657 | 0.652 | 0.636 | 0.644 |
| COR-L23 | 1.06 | 1.09 | 1.08 | 0.934 | 0.992 | 0.977 | 1.1 | 0.951 | 0.751 | 0.724 | 0.748 | 0.485 | 0.962 | 0.862 | 0.993 | 0.786 | 0.413 | 0.456 | 0.41 | 0.403 |
| CAL-12T | 0.971 | 1.07 | 0.986 | 0.922 | 1.13 | 1.17 | 1.01 | 1.09 | 0.657 | 0.866 | 0.718 | 0.639 | 0.835 | 0.846 | 0.832 | 0.71 | 0.584 | 0.553 | 0.58 | 0.559 |
| SW 1573 | 0.954 | 1.08 | 1.12 | 0.949 | 1.12 | 1.04 | 1.02 | 0.812 | 0.722 | 0.936 | 0.833 | 0.678 | 0.77 | 0.898 | 0.932 | 0.754 | 0.34 | 0.449 | 0.404 | 0.363 |
| NCI-H2126 | 0.986 | 1.01 | 0.997 | 0.957 | 1.05 | 1.23 | 1.25 | 1.06 | 1.01 | 1.05 | 1.02 | 1.03 | 0.694 | 0.715 | 0.68 | 0.702 | 0.51 | 0.518 | 0.525 | 0.512 |

Reference: the supplement of paper PMC10307832
